# Laboratory results taken from patent publication US20230338374A1, “MDM2 INHIBITORS FOR USE IN THE TREATMENT OR PREVENTION OF HEMATOLOGIC NEOPLASM RELAPSE AFTER HEMATOPOIETIC CELL TRANSPLANTATION” (Novartis AG, priority 2020, published 2023).
# Like-named read-outs stand apart in the source and are kept apart here.
# Columns and labels:
# [1] = cited from earlier work
# advanced solid tumor = conditions: cited from earlier work
# [2] = combined with pimasertib, cited from earlier work
# [3] = cited from earlier work; remark: listed apart in the source
# donor CD8^+ T-cells = test: T cell phenotyping in the GvL mouse model (WEHI-3B), spleen day 12; format: in vivo; conditions: allo-transplanted leukemia bearing BALB/c mice, vs vehicle
# From the text: FIG. 3: MDM2-inhibition promotes cytotoxicity and longevity of donor T cells • (a-h) Scatter plots and representative histograms show expression of Perforin (a, b), CD107a (c, d), IFN-γ (e, f), TNF-α (g, h) of CD8^+ T-cells isolated from spleen on day 12 following allo-HCT of WEHI-3B leukemia bearing BALB/c mice transplanted with C57BL/6 BM plus allogeneic C57BL/6 T-cells and treated with either vehicle or MDM2-inhibitor RG-7112. Mean value±SEM from n=14-19 biologically independent animals per group from 2 experiments are shown and p-values were calculated using two-sided Mann-Whitney U test. (m) Quantification of donor-derived (H-2kb+) TCRb+CD8+CD27+ TIM3+ T cells from allo-transplanted leukemia bearing BALB/c mice treated with RG-7112 or vehicle as indicated. (a) A representative flow cytometry histogram depicts the mean fluorescence intensity (MFI) and scatter plot showing fold-change of MFI for CD69 of all living donor (H-2kb^+) CD8^+ T cells from leukemia bearing BALB/c mice undergoing allo-HCT and being treated with vehicle. […] P-values were calculated using the two-sided Mann-Whitney U test. […] P-values were calculated using the two-sided Mann-Whitney U test. No difference in CD8 T-cells/all CD3 T-cells was detected. […] Mean value±SEM from n=14-19 biologically independent animals per group from 2 experiments are shown and p-value was calculated using two-sided Mann-Whitney U test. […]
# [4] = single oral doses; GI toxicities the most common AEs; cited from earlier work
# [5] = oral; no dose-limiting toxicities; cited from earlier work
# [6] = tested on: p53-knockdown OCI-AML3 cells; test: Expression in p53-knockdown cells (flow cytometry, western blot); format: cell-based, human; conditions: FIG. 9a
# Protocol: MFI of control-treated cells was set as 1.0. P-values were calculated using the two-sided Student's unpaired t-test.
# MFI of control-treated cells was set as 1.0. P-values were calculated using two-sided Student's unpaired t-test.
# (a) Representative western blot (left panel) showing the expression of MDM2, p53 and loading control (GAPDH) in WT OCI-AML3 cells or p53 knockdown OCI-AML3 cells exposed to […] doxorubicin for 4 hours, when indicated. Right panel: Quantification of the relative intensity of the protein bands for each group.
# P53 knockdown cells have been previously described (24). The p53 shRNA (p53.1224) had been cloned into a retroviral vector that co-expressed red fluorescent protein and which could be induced by doxycycline (24). […]
# For excluding dead cells, the LIVE/DEAD Fixable Dead Cell Stain kit (Molecular Probes, USA) or LIVE/DEAD™ Fixable Aqua Dead Cell Stain Kit (Thermo Scientific) along with True Stain FcX (BioLegend) were used, according to the manufacturer's instructions. For all flurochrome-conjugated antibodies, optimal concentrations were determined using titration experiments. […] Data were acquired on the BD LSR Fortessa flow cytometer (BD Biosciences, Germany) and analyzed using Flow Jo software version 10.4 (Tree Star, USA). […]
# OCI-AML3 cells = test: Killing assay with recombinant hTRAIL, viability by flow cytometry; format: cell-based, human; conditions: p53^−/− AML cells, FIG. 9e
# Protocol: After 48 hours limiting concentrations of hTRAIL (TNFSF 10) were added for 24 hours, where indicated. The viability of the AML cells was measured by flow cytometry. […] P-values were calculated using two-sided Student's unpaired t-test.
# Where indicated wildtype OCI-AML3 (WT) or p53 knockout (p53^−/−) OCI-AML3 were incubated with 1 μM MDM2-inhibitor RG7112. After 48 hours limiting concentrations of hTRAIL (TNFSF 10) were added for 24 hours where indicated. Viability of cells was measured by flow cytometry. […] P-values were calculated using two-sided Student's unpaired t-test.
# For Killing assays using recombinant hTRAIL ((TNFSF 10, Apo-2L, CD253;) […]®; ENZO), the ligand was added for 24 h 0.5 μg/ml (1:1000) for optimal killing and 0.25 μg/ml (1:2000) for limiting killing conditions to OCI-AML3 target cells. Viability of cells was assessed by LIVE/DEAD™ Fixable Aqua Dead Cell Stain Kit (Thermo Scientific). Data were acquired on the BD LSR Fortessa flow cytometer (BD Biosciences) and analyzed using Flow Jo software version 10.4 (Tree Star).
molecule,measurement,setting,value
COc1ncc(-c2nc3c(n2C(C)C)[C@H](c2ccc(Cl)cc2)N(c2cc(Cl)cn(C)c2=O)C3=O)c(OC)n1 [HDM201],grade 3/4 adverse event anemia,[1]; Reg 1,8%
same,grade 3/4 adverse event neutropenia,[1]; Reg 1,26%
same,grade 3/4 adverse event thrombocytopenia,[1]; Reg 1,24%
same,grade 3/4 adverse event anemia,[1]; Reg 2,17%
same,grade 3/4 adverse event neutropenia,[1]; Reg 2,14%
same,grade 3/4 adverse event thrombocytopenia,[1]; Reg 2,28%
CC(C)(C)C[C@@H]1N[C@@H](C(=O)N[C@H]2CC[C@H](O)CC2)[C@H](c2cccc(Cl)c2F)[C@]12C(=O)Nc1cc(Cl)ccc12 [SAR405838],3-month progression free rate,advanced solid tumor; 74 patients treated,32%
same,"best response, patients",advanced solid tumor; 74 patients treated,56%
same,safety profile,advanced solid tumor; patients with advanced solid tumors,acceptable safety profile
same,adverse event blood creatine phosphokinase,[2]; 26 patients,77%
same,adverse event diarrhoea,[2]; 26 patients,81%
same,adverse event nausea,[2]; 26 patients,62%
same,adverse event vomiting,[2]; 26 patients,62%
same,safety profile of the combination,[2],consistent with the safety profiles of both the drugs
CC(C)[C@@H](CS(=O)(=O)C(C)C)N1C(=O)[C@@](C)(CC(=O)O)C[C@H](c2cccc(Cl)c2)[C@H]1c1ccc(Cl)cc1 [AMG 232],MTD,[3]; dose escalation discontinued because of gastrointestinal AEs,not reached
same,treatment-related AE decreased appetite,[3]; in vivo,25%
same,treatment-related AE diarrhea,[3]; in vivo,56%
same,treatment-related AE nausea,[3]; in vivo,58%
same,treatment-related AE vomiting,[3]; in vivo,33%
CCOc1cc(C(C)(C)C)ccc1C1=N[C@@](C)(c2ccc(Cl)cc2)[C@@](C)(c2ccc(Cl)cc2)N1C(=O)N1CCN(CCCS(C)(=O)=O)CC1 [RG7112],CD8 T-cells/all CD3 T-cells,donor CD8^+ T-cells,No difference
same,tolerability,[4],generally well tolerated
CCN1[C@@H](C(=O)NC23CCC(C(=O)O)(CC2)CC3)[C@H](c2cccc(Cl)c2F)[C@]2(C(=O)Nc3cc(Cl)ccc32)C12CCCCC2 [APG-115],optimum dose,[5],100 mg
COc1cccc2c1C(=O)c1c(O)c3c(c(O)c1C2=O)C[C@@](O)(C(=O)CO)C[C@@H]3O[C@H]1C[C@H](N)[C@H](O)[C@H](C)O1 [doxorubicin],induction of p53,[6],decreased
"TRAIL: recombinant hTRAIL (TNFSF 10, Apo-2L, CD253) (protein) TSEETISTVQEKQQNISPLVRERGPQRVAAHITGTRGRSNTLSSPNSKNEKALGRKINSWESSRSGHSFLSNLHLRNGELVIHEKGFYYIYSQTYFRFQEEIKENTKNDKQMVQYIYKYTSYPDPILLMKSARNSCWSKDAEYGLYSIYQGGIFELKENDRIFVSVTNEHLIDMDHEASFFGAFLVG",apoptosis induced,OCI-AML3 cells,less apoptosis
